Several values for one entry are separate records, joined by “and”; a condition that tells them apart may be missing. Identical values can stand only once.
Test: Dissolution test of naltrexone from intact and ground tablets
Assay type: physicochemical
Description: Polylactid acid was injection moulded in a Haake Minijet (Haake MiniJet II, Thermo Electron, Karlsruhe, Germany) as described in Methods. An inner core filled with approximately 25 mg Naltrexone hydrochloride was prepared and closed in both ends with the above mentioned shell composition. The inner core has a size of 8 mm×4.26 mm×2.49 mm. The inner core was placed in the cavity of a larger shell 2 (H: 20 mm; L: 6 mm; B: 6 mm) with the same shell composition and the large shell was filled with placebo matrix composition as described in Methods.
Dissolution tests of naltrexone were performed in accordance to USP 30, NF 25, (711). Apparatus 2 (paddle method). The dissolution medium consisted of phosphate buffer solution pH 6.8. The volume of the dissolution medium was 500 ml and the rotation speed of the paddles was 50 rpm throughout the dissolution rum. The temperature was 37° C. Samples were withdrawn at suitable time intervals and analysed for content of active drug substance by means of HPLC UV detection. Intact tablets n=2 and tablets milled in a Coffee Grinder, Krups GVX242 (n=2) were analyse in dissolution.
The amount of naltrexone was determined by a modified USP method. The technique was reverse phase chromatography, using a Supelco Ascentis Express C18 2.7 μm 4.6*100 mm column. The mobile phase consisted of 1.08 g sodium 1-octanesulphonate, 23.8 g sodium acetate, 1 ml triethylamine, 450 ml methanol and approximately 550 ml water. The HPLC settings were as follows: Isocratic, column temperature 30° C. flow 0.6 ml/min, detection HPLC-UV at 280 nm, injection volume 20 μl with a 6 minutes run time.

Question: Which results are given for O=C1CC[C@@]2(O)[C@H]3Cc4ccc(O)c5c4[C@@]2(CCN3CC2CC2)[C@H]1O5 [Naltrexone]?
Answer: Amount of naltrexone found in dissolution medium (Ground tablet (Coffee Grinder, Krups GVX242), 0.2 hours, phosphate buffer pH 6.8, 100% = 25 mg): 34.1% and 31.5%; Amount of naltrexone found in dissolution medium (Ground tablet, 0.5 hours): 36.3% and 34.2%; Amount of naltrexone found in dissolution medium (Ground tablet, 0.8 hours): 36.6% and 34.7%; Amount of naltrexone found in dissolution medium (Ground tablet, 1.5 hours): 37.4% and 34.9%; Amount of naltrexone found in dissolution medium (Ground tablet, 20 hours): 39.0% and 37.1%; Amount of naltrexone found in dissolution medium (Ground tablet, 30 hours): 34.9% and 35.9%

— patent publication US9498446B2, “Pharmaceutical compositions resistant to abuse” (Egalet Ltd., priority 2009, dated 2016)
